Legend:
Type in all cases: in vivo
[1] = tested on: Surinam grass (Brachiaria decumbens); assay: Test B postemergence; conditions: 13 to 15 days
Procedure, shortened: (§1)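 Post-treatment, species sat 13–15 days under greenhouse conditions before visual scoring against controls, 0 (no effect) through 100 (complete control). Application preemergence to sown seeds or postemergence at 1- to 4-leaf stage, using a non-phytotoxic solvent/surfactant formulation.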

[2] = tested on: barnyardgrass (Echinochloa crus-galli); assay: Test B postemergence; conditions: 13 to 15 days
Procedure, shortened: as §1

[3] = tested on: blackgrass (Alopecurus myosuroides); assay: Test B postemergence; conditions: 13 to 15 days
Procedure, shortened: as §1

[4] = tested on: cocklebur (Xanthium strumarium); assay: Test B postemergence; conditions: 13 to 15 days
Procedure, shortened: as §1

corn (Zea mays) [5] = assay: Test B postemergence; conditions: 13 to 15 days
Procedure, shortened: as §1

[6] = tested on: crabgrass (Digitaria sanguinalis); assay: Test B postemergence; conditions: 13 to 15 days
Procedure, shortened: as §1

[7] = tested on: giant foxtail (Setaria faberii); assay: Test B postemergence; conditions: 13 to 15 days
Procedure, shortened: as §1

[8] = tested on: lambsquarters (Chenopodium album); assay: Test B postemergence; conditions: 13 to 15 days
Procedure, shortened: as §1

[9] = tested on: morning glory (Ipomoea hederacea); assay: Test B postemergence; conditions: 13 to 15 days
Procedure, shortened: as §1

[10] = tested on: pigweed (Amaranthus retroflexus); assay: Test B postemergence; conditions: 13 to 15 days
Procedure, shortened: as §1

[11] = tested on: velvetleaf (Abutilon theophrasti); assay: Test B postemergence; conditions: 13 to 15 days
Procedure, shortened: as §1

[12] = tested on: wheat (Triticum aestivum); assay: Test B postemergence; conditions: 13 to 15 days
Procedure, shortened: as §1

wild oat (Avena fatua) = assay: Test B postemergence; conditions: 13 to 15 days
Procedure, shortened: as §1

Sunflower [13] = assay: Test C preemergence
Description: (§2) Seeds of plant species selected from bermudagrass (Cynodon dactylon), Surinam grass (Brachiaria decumbens), cocklebur (Xanthium strumarium), corn (Zea mays), crabgrass (Digitaria sanguinalis), woolly cupgrass (Eriochloa villosa), giant foxtail (Setaria faberii), goosegrass (Eleusine indica), johnsongrass (Sorghum halepense), kochia (Kochia scoparia), lambsquarters (Chenopodium album), morningglory (Ipomoea hederacea), yellow nutsedge (Cyperus esculentus), pigweed (Amaranthus retroflexus), common ragweed (Ambrosia elatior), soybean (Glycine max) and velvetleaf (Abutilon theophrasti) were planted and treated preemergence with test chemicals formulated in a non-phytotoxic solvent mixture which included a surfactant.
(§3) At the same time, plants selected from these crop and weed species and also winter barley (Hordeum vulgare), blackgrass (Alopecurus myosuroides), canary grass (Phalaris minor), chickweed (Stellaria media), downy brome (Bromus tectorum), green foxtail (Setaria viridis), Italian ryegrass (Lolium multiflorum), wheat (Triticum aestivum), wild oat (Avena fatua) and windgrass (Apera spica-venti) were treated with postemergence applications of some of the test chemicals formulated in the same manner. Plants ranged in height from 2 to 18 cm (1- to 4-leaf stage) for postemergence treatments. Plant species in the flooded paddy test consisted of rice (Oryza saliva), smallflower flatsedge (Cyperus difformis), duck salad (Heteranthera limosa) and barnyardgrass (Echinochloa crus-galli) grown to the 2-leaf stage for testing. Treated plants and controls were maintained in a greenhouse for 12 to 14 days, after which time all species were compared to controls and visually evaluated. Plant response ratings, summarized in Table C, are based on a scale of 0 to 100 where 0 is no effect and 100 is complete control. A dash (-) response means no test result.

[14] = tested on: bermudagrass (Cynodon dactylon); assay: Test C preemergence; conditions: for Plant response rating (0 to 100 where 0 is no effect and 100 is complete control), Bermudagrass: Rate 250 g/ha, visual evaluation after 12 to 14 days
Description: as §2, §3

corn (Zea mays) [15] = assay: Test C preemergence; conditions: for Plant response rating (0 to 100), Corn: Rate 250 g/ha, visual evaluation after 12 to 14 days
Description: as §2, §3

[16] = tested on: giant foxtail (Setaria faberii); assay: Test C preemergence; conditions: for Plant response rating (0 to 100), Foxtail, Giant: Rate 250 g/ha, visual evaluation after 12 to 14 days
Description: as §2, §3

[17] = tested on: johnsongrass (Sorghum halepense); assay: Test C preemergence; conditions: for Plant response rating (0 to 100), Johnsongrass: Rate 250 g/ha, visual evaluation after 12 to 14 days
Description: as §2, §3

[18] = tested on: morningglory (Ipomoea hederacea); assay: Test C preemergence; conditions: for Plant response rating (0 to 100), Morningglory: Rate 250 g/ha, visual evaluation after 12 to 14 days
Description: as §2, §3

[19] = tested on: velvetleaf (Abutilon theophrasti); assay: Test C preemergence; conditions: for Plant response rating (0 to 100), Velvetleaf: Rate 250 g/ha, visual evaluation after 12 to 14 days
Description: as §2, §3

[20] = tested on: yellow nutsedge (Cyperus esculentus); assay: Test C preemergence; conditions: for Plant response rating (0 to 100), Nutsedge: Rate 250 g/ha, visual evaluation after 12 to 14 days
Description: as §2, §3

Sunflower [21] = assay: Test C preemergence; conditions: Rate 250 g/ha, visual evaluation after 12 to 14 days
[22] = Rate 125 g/ha, scale 0 (no effect) to 100 (complete control)
[23] = Rate 500 g/ha, scale 0 to 100, 0 is no effect, 100 is complete control
[24] = Rate 62 g/ha, scale 0 to 100, 0 no effect, 100 complete control
[25] = Preemergence, Rate 500 g/ha, scale 0 to 100
[26] = preemergence, Rate 125 g/ha, scale 0 to 100, 0 no effect, 100 complete control

CC(C)(C)c1ccn(C2SCN(c3cccc(OC(F)(F)F)c3)C2=O)n1 (stereo not shown) [Compound 30]
50: Plant response rating, Crabgrass [6, 22] | Plant response rating, Corn (corn (Zea mays) [15]; [25]) | Plant response rating (0 to 100), Corn (corn (Zea mays) [15]; preemergence)
70: Plant response rating, Cocklebur [4, 22] | Plant response rating, Cocklebur [4, 23]
100: Plant response rating, Barnyardgrass [2, 22] | Plant response rating, Barnyardgrass [2, 23] | Plant response rating, Crabgrass [6, 23] | Plant response rating, Pigweed [10, 22] | Plant response rating, Pigweed [10, 23] | Plant response rating, Sunflower (Sunflower [13]; Rate 500 g/ha, scale 0 to 100) | Plant response rating, Bermudagrass [14, 25] | Plant response rating, Bermudagrass [14, 24] | Plant response rating (0 to 100 where 0 is no effect and 100 is complete control), Bermudagrass ([14]; preemergence) | Plant response rating, Bermudagrass [14, 26] | Plant response rating, Foxtail, Giant [16, 25] | Plant response rating, Johnsongrass [17, 25]
30: Plant response rating, Corn (corn (Zea mays) [15]; [24]) | Plant response rating, Johnsongrass [17, 24] | Plant response rating, Morningglory [18, 24] | Plant response rating, Morningglory [18, 26] | Plant response rating, Velvetleaf [19, 25]
20: Plant response rating, Surinam grass [1, 23] | Plant response rating, Blackgrass [3, 23] | Plant response rating, Nutsedge [20, 24]
40: Plant response rating, Morningglory [9, 22] | Plant response rating, Corn (corn (Zea mays) [15]; [26]) | Plant response rating, Johnsongrass [17, 26] | Plant response rating, Nutsedge [20, 25] | Plant response rating (0 to 100), Nutsedge ([20]; preemergence)
10: Plant response rating, Foxtail, Giant [7, 22]
60: Plant response rating, Foxtail, Giant [16, 26]
0: Plant response rating, Surinam grass [1, 22] | Plant response rating, Blackgrass [3, 22] | Plant response rating, Corn (corn (Zea mays) [5]; [22]) | Plant response rating, Corn (corn (Zea mays) [5]; [23]) | Plant response rating, Velvetleaf [11, 22] | Plant response rating, Velvetleaf [11, 23] | Plant response rating, Wheat [12, 22] | Plant response rating, Wheat [12, 23] | Plant response rating, Wild Oat (wild oat (Avena fatua); [22]) | Plant response rating, Wild Oat (wild oat (Avena fatua); [23]) | Plant response rating, Sunflower (Sunflower [13]; [24]) | Plant response rating, Velvetleaf [19, 24] | Plant response rating (0 to 100), Velvetleaf ([19]; preemergence) | Plant response rating, Velvetleaf [19, 26]
80: Plant response rating, Foxtail, Giant [7, 23] | Plant response rating, Foxtail, Giant [16, 24] | Plant response rating, Morningglory [18, 25] | Plant response rating (0 to 100), Morningglory ([18]; preemergence) | Plant response rating (0 to 100), Sunflower (Sunflower [21])
90: Plant response rating, Lambsquarters [8, 22] | Plant response rating, Lambsquarters [8, 23] | Plant response rating, Morningglory [9, 23] | Plant response rating (0 to 100), Foxtail, Giant ([16]; preemergence) | Plant response rating (0 to 100), Johnsongrass ([17]; preemergence)

CCC(C)c1ccn(C2SCN(c3cccc(OC(F)(F)F)c3)C2=O)n1 (stereo not shown) [Compound 32]
100: Plant response rating, Crabgrass [6, 23] | Plant response rating, Bermudagrass [14, 25] | Plant response rating (0 to 100 where 0 is no effect and 100 is complete control), Bermudagrass ([14]; preemergence) | Plant response rating, Foxtail, Giant [16, 25] | Plant response rating (0 to 100), Foxtail, Giant ([16]; preemergence)
50: Plant response rating, Bermudagrass [14, 24] | Plant response rating (0 to 100), Corn (corn (Zea mays) [15]; preemergence) | Plant response rating, Corn (corn (Zea mays) [15]; [26]) | Plant response rating, Foxtail, Giant [16, 26] | Plant response rating (0 to 100), Morningglory ([18]; preemergence) | Plant response rating (0 to 100), Nutsedge ([20]; preemergence) | Plant response rating, Nutsedge [20, 26]
80: Plant response rating, Barnyardgrass [2, 22] | Plant response rating, Crabgrass [6, 22] | Plant response rating, Lambsquarters [8, 22] | Plant response rating, Morningglory [18, 25]
70: Plant response rating, Sunflower (Sunflower [13]; Rate 500 g/ha, scale 0 to 100) | Plant response rating, Foxtail, Giant [16, 24] | Plant response rating (0 to 100), Sunflower (Sunflower [21])
60: Plant response rating, Cocklebur [4, 22] | Plant response rating, Cocklebur [4, 23] | Plant response rating, Foxtail, Giant [7, 23] | Plant response rating, Pigweed [10, 23] | Plant response rating, Corn (corn (Zea mays) [15]; [25]) | Plant response rating, Nutsedge [20, 25]
0: Plant response rating, Surinam grass [1, 22] | Plant response rating, Blackgrass [3, 22] | Plant response rating, Blackgrass [3, 23] | Plant response rating, Corn (corn (Zea mays) [5]; [22]) | Plant response rating, Corn (corn (Zea mays) [5]; [23]) | Plant response rating, Foxtail, Giant [7, 22] | Plant response rating, Velvetleaf [11, 22] | Plant response rating, Velvetleaf [11, 23] | Plant response rating, Wheat [12, 22] | Plant response rating, Wheat [12, 23] | Plant response rating, Wild Oat (wild oat (Avena fatua); [22]) | Plant response rating, Wild Oat (wild oat (Avena fatua); [23]) | Plant response rating, Sunflower (Sunflower [13]; [24]) | Plant response rating, Velvetleaf [19, 24] | Plant response rating (0 to 100), Velvetleaf ([19]; preemergence) | Plant response rating, Velvetleaf [19, 26]
40: Plant response rating, Pigweed [10, 22] | Plant response rating, Corn (corn (Zea mays) [15]; [24]) | Plant response rating, Johnsongrass [17, 26] | Plant response rating, Morningglory [18, 26] | Plant response rating, Velvetleaf [19, 25]
20: Plant response rating, Morningglory [9, 22] | Plant response rating, Morningglory [9, 23]
10: Plant response rating, Surinam grass [1, 23]
30: Plant response rating, Johnsongrass [17, 24] | Plant response rating, Morningglory [18, 24]
90: Plant response rating, Barnyardgrass [2, 23] | Plant response rating, Lambsquarters [8, 23] | Plant response rating, Bermudagrass [14, 26] | Plant response rating, Johnsongrass [17, 25] | Plant response rating (0 to 100), Johnsongrass ([17]; preemergence)

From US7138361B2, “Herbicidal heterocycles” (E. I. du Pont de Nemours and Company, priority 2000, dated 2006)
